“Also recorded” adds a separate entry of the source.
What was measured:
[1] = Absorption of the compound by itself in the visible spectrum
Experimental: (§1) To test whether this compound associates with wild-type (WT) opsin to form pigment, it was added to opsin solution in vitro.

purified WT opsin = assay: Opsin regeneration: pigment (rhodopsin) formation with 11-cis-retinal in presence of compound; settings: for inhibition of pigment formation of opsin with 11-cis-retinal / of binding of 11-cis-retinal to opsin: in vitro, result in words
Experimental: In a typical competition assay of the invention, a compound is sought that will tie up the retinal binding pocket of the opsin protein. Thus, the assay seeks to identify a non-retinoid compound (one that will not be tightly regulated by the retina as to amount entering rod cells) that competes with 11-cis-retinal. Over time this will slow the rate of formation of rhodopsin relative to the rate when 11-cis-retinal alone is present. In one embodiment, the assay is conducted in the presence of 11-cis-retinal, and the rate of formation of rhodopsin is measured as a way of determining competition for the retinal binding pocket, for example, by determining the rate of increase in the 500 nm peak characteristic for rhodopsin. No antibodies for rhodopsin are required for this assay.

[2] = system: purified wt (wild-type) opsin; assay: Pigment formation of compound alone with opsin (500 nm absorbing pigment); settings: compound added to opsin without 11-cis-retinal
Experimental: as §1

Row | Structure (SMILES) | absorption in the visible spectrum [1] | extent of inhibition of regeneration compared with β-ionone (purified WT opsin; SN10011 2 and 5 mM vs β-ionone) | inhibition of pigment formation of opsin with 11-cis-retinal / of binding of 11-cis-retinal to opsin (purified WT opsin) | inhibition of pigment formation of opsin with 11-cis-retinal / of binding of 11-cis-retinal to opsin (purified WT opsin; listed as SN 10011) | formation of a 500 nm absorbing pigment with opsin [2]
1 | CC(=O)c1c(C)n[nH]c1C [SN10011, 1-(3,5-dimethyl-1H-pyrazol-4-yl)ethanone] | did not show any absorption in the visible spectrum; also recorded: does not absorb in the visible spectrum | much lower | reversibly inhibits binding of 11-cis-retinal; also recorded: significant effect on inhibition of pigment formation; also recorded: inhibited | inhibits the binding of 11-cis-retinal to opsin in vitro | No pigment was formed; also recorded: no 500 nm absorbing pigment was generated
2 | CC(=O)/C=C/C1=C(C)CCCC1(C)C [β-ionone, reference compound] |  |  | inhibit binding of retinal to the site; also recorded: inhibited opsin regeneration in a dose dependent manner |  | does not form a light absorbing pigment; also recorded: does not itself form a 500 nm absorbing pigment; also recorded: no 500 nm absorbing pigment was formed

Source: patent US20090291919A1, “Compositions and Methods for Treating or Preventing Ophthalmic Light Toxicity” (University of Florida Research Foundation, Inc., priority 2006, published 2009)
